Results taken from patent US6514981B1, “Methods of modulating tyrosine protein kinase function with indolinone compounds” (Sugen, Inc., priority 1998, dated 2003).

Target: T1, IGF-1 receptor (Homo sapiens, UniProt P08069)
T1 construct: expressed in transfected cells; host or cells: 3T3-L1/IGF-1R (also written NIH3T3/IGF-1R)
Experiment: IGF-1 receptor phosphorylation assay in cells (ELISA)
Assay type: cell-based
Conditions: 3T3-L1/IGF-1R cells, IGF-1 stimulation
Protocol: The following protocol was used to measure phosphotyrosine level on IGF-1 receptor, which indicates IGF-1 receptor tyrosine kinase activity.
a. The cell line used in this assay is 3T3-L1/IGF-1R, a cell line genetically engineered to overexpresses IGF-1 receptor.
2. Resuspend the cells in fresh DMEM+10% FBS+2mM L-Glutamine, and transfer to 96-well tissue culture plate (Corning, 250806-96) at 20,000 cells/well (100 μL/well). Incubate for 1 day then replace medium to serum-free medium (90/μL) and incubate in 5% CO2 and 37° C. overnight.
1. Coat the ELISA plate (Corning 25805-96) with Anti-IGF-1R Antibody at 0.5 μg/well in 100 μL PBS at least 2 hours.
2. Dilute drug stock (in 100% DMSO) 1:10 with DMEM in 96-well poly-propylene plate, and transfer 10 μL/well of this solution to the cells to achieve final drug dilution 1:100, and final DMSO concentration of 1.0%. Incubate the cells in 5% C02 at 37° C. for 2 hours.
4. After drug incubation for two hours, transfer 10 μL/well of 200 nM IGF-1 Ligand m PBS to the cells (Final Conc.=20 nM), and incubate at 5% CO2 at 37° C. for 10 minutes.
5. Remove media and add 100 μL/well HNTG* and shake for 10 minutes. Look at cells under microscope to see if they are adequately lysed.
6. […]
The IC50 values measured in the IGF-1 receptor phosphorylation assay for the compound of formula VI are depicted in Table 4: […]

T1 sequence (P08069 31-1367): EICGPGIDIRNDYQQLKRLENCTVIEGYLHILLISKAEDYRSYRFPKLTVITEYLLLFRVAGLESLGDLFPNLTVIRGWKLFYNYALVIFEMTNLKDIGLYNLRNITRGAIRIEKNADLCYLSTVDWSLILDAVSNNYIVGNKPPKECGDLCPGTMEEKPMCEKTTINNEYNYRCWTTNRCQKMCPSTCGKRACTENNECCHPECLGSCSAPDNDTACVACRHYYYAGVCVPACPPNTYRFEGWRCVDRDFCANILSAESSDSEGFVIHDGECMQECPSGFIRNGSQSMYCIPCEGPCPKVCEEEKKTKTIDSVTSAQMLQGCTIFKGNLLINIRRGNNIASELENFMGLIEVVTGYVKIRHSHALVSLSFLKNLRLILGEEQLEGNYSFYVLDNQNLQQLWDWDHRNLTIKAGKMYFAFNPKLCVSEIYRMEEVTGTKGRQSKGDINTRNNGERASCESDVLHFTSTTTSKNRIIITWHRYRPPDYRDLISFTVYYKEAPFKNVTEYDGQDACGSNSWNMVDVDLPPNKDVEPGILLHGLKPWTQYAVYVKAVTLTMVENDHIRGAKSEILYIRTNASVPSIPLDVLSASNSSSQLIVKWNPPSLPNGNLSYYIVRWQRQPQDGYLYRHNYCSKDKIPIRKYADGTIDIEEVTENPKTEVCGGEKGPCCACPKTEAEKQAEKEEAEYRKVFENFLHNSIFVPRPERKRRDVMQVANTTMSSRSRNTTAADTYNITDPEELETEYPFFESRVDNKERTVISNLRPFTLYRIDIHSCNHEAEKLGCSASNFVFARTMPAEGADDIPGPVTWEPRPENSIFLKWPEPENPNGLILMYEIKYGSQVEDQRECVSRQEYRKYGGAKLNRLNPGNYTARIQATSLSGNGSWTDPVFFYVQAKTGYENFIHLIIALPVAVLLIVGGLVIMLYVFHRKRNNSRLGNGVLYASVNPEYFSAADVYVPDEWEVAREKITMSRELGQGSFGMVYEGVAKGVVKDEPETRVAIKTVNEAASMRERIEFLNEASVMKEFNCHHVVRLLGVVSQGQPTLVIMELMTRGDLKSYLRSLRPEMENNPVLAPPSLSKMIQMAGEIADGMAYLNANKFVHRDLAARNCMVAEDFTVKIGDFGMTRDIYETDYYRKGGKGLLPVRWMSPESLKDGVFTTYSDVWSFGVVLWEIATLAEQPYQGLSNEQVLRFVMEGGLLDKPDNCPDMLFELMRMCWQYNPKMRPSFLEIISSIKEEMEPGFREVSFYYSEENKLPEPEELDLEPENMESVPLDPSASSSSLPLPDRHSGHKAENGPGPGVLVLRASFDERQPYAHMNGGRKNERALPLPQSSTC

## Cc1cc(/C=C2/C(=O)Nc3ccccc32)c(C)c2c1[nH]c1ccccc12 [VI]
  IC50: 8.52 µM
